Data on 8 molecules can be found in patent US9879243B2, “Culture medium for cell growth and transfection” (LIFE TECHNOLOGIES CORPORATION, priority 2001, dated 2018).

The subject of one test is CHO cells. Nature of the test: Effect of replacement compounds on the growth of CHO cells in CD CHO medium without transferrin, three passages. The class given is cell-based, Chinese hamster. The following applies: third passage. The procedure: The ability of replacement compounds to support cellular growth in the absence of transferrin was evaluated using CHO cells maintained in CD CHO medium (Invitrogen Corporation, Carlsbad, Calif., the formulation of which is described in WO 98/08934). Stock cultures containing 5 μg/mL human holo-transferrin were prepared in CD CHO medium. For replacement compound evaluation, CHO cells were established in 125 mL shaker flasks at an initial viable seeding density of 1×10^5 cells/mL in a final volume of 20 mL. All cultures were maintained at 37° C. in humidified air containing 8% CO2. To eliminate transferrin carry-over effects, cells were subcultured at 4 day intervals for a total of three passages. Positive control cultures contained 5 μg/mL human holo-transferrin while negative control cultures were established in the absence of either transferrin or replacement compound. Replacement compound stocks were prepared at 0.1M-0.2M in ddH2O and solubilized when necessary using 5N NaOH or HCl. Iron complexes were established using 0.2M replacement compound and iron stocks mixed 1:1 (v/v) and incubated for 5-10 minutes at 22° C. All solutions containing replacement compounds were filter sterilized using a 0.22 μm Millex-GV filter prior to addition to transferrin and serum-free media.
Except where noted, replacement compounds were evaluated either alone or in combination with ferric chloride or ferrous sulfate at 25 μM, 50 μM and 100 μM. Values in the table represent the mean percentage of control growth for duplicate cultures determined at the third passage.
The ability of various replacement compounds to substitute for transferrin in the culture of CHO cells was determined. When added to the medium formulation un-complexed, the replacement compound is listed alone, when added as a complex with a transition metal, the source of the transition metal is listed with the metal binding compound.

The subject of the next test is Sp2/0 cells. Nature of the test: Effect of replacement compounds on the growth of Sp2/0 cells in CD Hybridoma medium without transferrin, three passages. The class given is cell-based. The following applies: third passage. The procedure: The ability of replacement compounds to support cellular growth in the absence of transferrin was evaluated using Sp2/0 cells maintained in CD Hybridoma medium (Invitrogen Corporation, Carlsbad, Calif.).
Stock cultures containing 5 μg/mL human holo-transferrin were prepared in CD Hybridoma medium. For replacement compound evaluation, Sp2/0 cells were established at an initial viable cell density of 0.5×10^5 cells/mL in stationary culture using 75 cm^2 tissue culture flasks in a final volume of 20 mL. All cultures were maintained at 37° C. in humidified air containing 8% CO2. To eliminate transferrin carry-over effects, cells were subcultured at the same seeding density at 4 day intervals for a total of three passages. Positive control cultures contained 5 μg/mL human holo-transferrin while negative control cultures were established in the absence of either transferrin or replacement compound. Replacement compound stocks were prepared at 0.1M-0.2M in ddH2O and solubilized when necessary using 5N NaOH or HCl. Iron complexes were established using 0.2M replacement compound and iron stocks mixed 1:1 (v/v) and incubated for 5-10 minutes at 22° C. All solutions containing replacement compounds were filter sterilized using a 0.22 μm Millex-GV filter prior to addition to transferrin and serum-free media.
Except where otherwise noted, replacement compounds were evaluated either alone or in combination with ferric chloride or ferrous sulfate at 25 μM, 50 μM and 100 μM. Values in the table represent the mean percentage of control growth for duplicate cultures determined at the third passage.
When added to the medium formulation un-complexed, the replacement compound is listed alone, when added as a complex with a transition metal, the source of the transition metal is listed with the replacement compound.

The next test concerns 293 cells. As to the kind of experiment: Effect of replacement compounds on the growth of 293 cells in 293 SFM without transferrin, three passages. The format is cell-based, human. The following applies: third passage, control 5 μg/mL human holo-transferrin. The procedure: Semi-confluent adherent cultures of 293 Cells (ATCC, CRL 1573) are readily adapted to suspension culture. The cells are first detached with a solution of Trypsin-EDTA (0.05% Trypsin, 0.53 mM Na4EDTA), and then resuspended in conventional medium supplemented with 10% FBS to inhibit the trypsin. The resuspended cells are centrifuged at 200×g for five minutes.
The initial seeding density of the 293 cells after conversion to suspension culture is 1×10^6 cells/mL. The cells are shaken on a rotary shaker at 150 rpm in a 37° C. incubator equilibrated with 8% CO2-92% air. […] Because 293 cells have a tendency to aggregate, the cells can be vortexed vigorously for approximately 45 seconds to obtain a predominantly single cell suspension at the time of passaging and counting. After several passages in suspension culture, the maximum achievable density can be determined.
For replacement compound evaluation, 293 cells were established in 125 mL shaker flasks at an initial viable seeding density of 2×10^5 cells/mL in a final volume of 20 mL. All cultures were maintained at 37° C. in humidified air containing 8% CO2. To eliminate transferrin carry-over effects, cells were subcultured at 4 day intervals for a total of three passages. At each subculturing, cells were seeded at a density of 2×10^5 cells/mL. Positive control cultures contained 5 μg/mL human holo-transferrin while negative control cultures were established in the absence of either transferrin or replacement compound. Replacement compound stocks were prepared at 0.1M-0.2M in ddH2O and solubilized when necessary using 5N NaOH or HCl. Iron complexes were established using 0.2 M replacement compound and iron stocks mixed 1:1 (v/v) and incubated for 5-10 minutes at 22° C. All solutions containing replacement compounds were filter sterilized using a 0.22 μm Millex-GV filter prior to addition to transferrin and serum-free media.
Except where noted, replacement compounds were evaluated either alone or in combination with ferric chloride or ferrous sulfate at 25 μM, 50 μM and 100 μM. When used in combination, the replacement compounds were used in equimolar concentration with iron ions. Values in Table 4 represent the mean percentage of control growth for duplicate cultures determined at the third passage.
When added to the medium formulation uncomplexed, the replacement compound is listed alone, when added as a complex with a transition metal, the source of the transition metal is listed with the replacement compound.

[1] abbreviates: 25 μM, control 5 μg/mL human holo-transferrin.
Setting [2] is: 25 μM, iron equimolar where combined.

Consider `O=C(O)c1cccc(O)c1O.[Cl][Fe]([Cl])[Cl]` [2,3-Dihydrobenzoic Acid•Ferric Chloride], for which the results for the “mean percentage of control growth” value with CHO cells (setting [1]), in the test on CHO cells (50 μM) and in the test with CHO cells (100 μM) were 71 percentage of control growth, 0 percentage of control growth and 0 percentage of control growth, respectively.
For `O=C(O)c1ccccn1.[Cl][Fe]([Cl])[Cl]` [2-Pyridinecarboxylic Acid•Ferric Chloride], the “mean percentage of control growth” value in the test with Sp2/0 cells (setting [1]) is 0 percentage of control growth; with Sp2/0 cells (50 μM), 30 percentage of control growth; in the test on Sp2/0 cells (100 μM) it was 48 percentage of control growth; with CHO cells (setting [1]) it was 88 percentage of control growth; in the test with CHO cells (50 μM) it was 89 percentage of control growth; with CHO cells (100 μM), 100 percentage of control growth.
As to `O=c1cc(CO)occ1O` [Kojic Acid], the “mean percentage of control growth” value in the test with Sp2/0 cells (setting [1]), in the test with Sp2/0 cells (50 μM), in the test with Sp2/0 cells (100 μM), in the test on CHO cells (setting [1]), with CHO cells (50 μM) and in the test with CHO cells (100 μM) was 0 percentage of control growth throughout.
As for Aspartic Acid•Ferric Chloride, the “mean percentage of control growth” value in the test on CHO cells (setting [1]) was 77 percentage of control growth; in the test with CHO cells (50 μM), 89 percentage of control growth; with CHO cells (100 μM) it was 112 percentage of control growth; in the test on 293 cells (setting [2]) it was 81 percentage of control growth; in the test on 293 cells (50 μM), 86 percentage of control growth; in the test with 293 cells (100 μM) it was 100 percentage of control growth.
For the molecule Cysteine•Ferrous Sulfate, the “mean percentage of control growth” value in the test on Sp2/0 cells (setting [1]) was 85 percentage of control growth; in the test with Sp2/0 cells (50 μM) it was 79 percentage of control growth; in the test on Sp2/0 cells (100 μM) it was 67 percentage of control growth; in the test on CHO cells (setting [1]), 83 percentage of control growth; in the test with CHO cells (50 μM) it was 64 percentage of control growth; in the test on CHO cells (100 μM) it was 45 percentage of control growth.
Turning to Kojic Acid•Ferric Chloride, the “mean percentage of control growth” value is reported as 0 percentage of control growth with Sp2/0 cells (setting [1]); 0 percentage of control growth with Sp2/0 cells (50 μM); 0 percentage of control growth with Sp2/0 cells (100 μM); 89 percentage of control growth with CHO cells (setting [1]); 88 percentage of control growth in the test with CHO cells (50 μM); 85 percentage of control growth in the test with CHO cells (100 μM).
For the molecule Lysine•Ferric Chloride, the “mean percentage of control growth” value with CHO cells (setting [1]) is 51 percentage of control growth; with CHO cells (50 μM), 79 percentage of control growth; in the test with CHO cells (100 μM), 98 percentage of control growth.
Turning to Nicotinic Acid-N-Oxide•Ferric Chloride, the “mean percentage of control growth” value was 60 percentage of control growth in the test with CHO cells (setting [1]); 84 percentage of control growth in the test on CHO cells (50 μM); 105 percentage of control growth with CHO cells (100 μM); 104 percentage of control growth with 293 cells (setting [2]); 80 percentage of control growth with 293 cells (50 μM); 79 percentage of control growth in the test on 293 cells (100 μM).
